Tests used:
[1] = test system: TNBC tumor parenchyma; experiment: Histology, IHC and TUNEL of PDX tumor tissue; type: in vivo, mouse; details: for H&E staining: size and color intensities of tumor cells: 2 mg/Kg Bwt i.p.; for apoptosis in TNBC tumor (TUNEL staining): FIG. 14; for Ki-67 immunoreactivity in tumor parenchyma: p<0.0001 vs control
Experimental: FIG. 13 illustrates an embodiment of the present invention and illustrates the effects of SIM-1 and SIM-2 on the growth arrest of TNBC tumors. […] The higher magnification images were given below. (B) Area of 50 randomly selected cells (10 different images from n=5 mice/group) from three different groups were measured using polygon tool of ImageJ software and then the scatter histogram analysis was performed using GraphPad Prism 10 statistical software package. The significance of mean between groups (***p<0.001 versus control) was calculated by one-way ANOVA analysis (effector: treatment). (C) IHC staining of cell growth marker Ki-67 in vehicle-, SIM-1-, and SIM-2-treated tumors represents the cell growth property of tumor cells. […] Both hematoxylin-ir nuclei (total cells) and Ki-67-ir cells were counted in n=15 images per group, converted in percent scale, and then plotted as scatter histogram. ****p<0.0001 vs. control as derived by one-way ANOVA. (E) IHC staining of cell proliferation marker PCNA in three different groups. (F) Scatter histogram analysis of […] counted from n=15 images per group and then plotted as percent scale. […] (G) A gene array of 84 genes in a validated human breast cancer gene array (RT^2 Profiler™ PCR array; Cat #PAHS-131ZA; Qiagen) was conducted in cDNA samples extracted from TNBC tumors of vehicle, SIM-1- and SIM-2-treated (n=3) groups. The resultant gene expressions were converted in log scale and then compared with the vehicle in (G) SIM-1 and (H) SIM-2 treated groups as shown in scatter plots. […] (I) Validation of gene expressions of CCND1, CCND2, CCNE1, CDK2 genes were performed by real-time PCR analysis. (J) Upregulations of CDKN1A, and CDKN2A in SIM-1- and SIM-2-treated groups were validated by real-time PCR analyses. were Significance of mean calculated by one-way ANOVA resulted […] versus respective vehicle-groups. The results are confirmed after three different experiments.
(A) TUNEL staining to monitor apoptosis of tumor cells among all groups followed by (B) counting of TUNEL-ir cells from n=15 images per group and then plotting a scatter histogram analysis. ****p<0.0001 vs. control as derived by one-way ANOVA. (C) A protein array of 35 different apoptosis-related proteins (Human apoptosis array; Cat #ARY009; R&D Systems) was conducted in the tumor tissue extracts of three different groups. Red, purple, and green squares represent the expressions of Bad, Bax, and Cytochrome C proteins respectively. Black enclosures represent the positive controls. (D) Heatmap analysis summarizes the expressions of breast cancer 84 validated breast cancer-associated genes (RT^2 Profiler™ PCR array; Cat #PAHS-131ZA; Qiagen). These genes critically regulate the growth and apoptosis of breast cancer cells. The details of the genes can be found here (geneglobe.qiagen.com/us/product-groups/rt2-profiler-pcr-arravs/PAHS-131Z). Scatter plot analyses in FIG. 13G and FIG. 13H was performed to compare the relative expressions of apoptotic genes and growth suppressive genes between the vehicle- and SIM-1-treated as well as the vehicle- and SIM-2-treated groups.
Immunohistochemical (IHC) analyses. Tumor tissues were embedded in paraffin, cut at a thickness of 5 μm in Leica microtome, attached to a charged slide, dried in a dry bath at 37° C. for at least 48 hrs., and then progressed for IHC analysis. The IHC analysis was performed where, briefly, sections were deparaffinized by xylene and rehydrated by ethanol gradient (100%>70%>50%>20%; v/v) followed by complete rehydration by water. […]

[2] = test system: human mammary epithelial cells (HMECs); experiment: LDH assay in healthy human mammary epithelial cells; type: cell-based; details: 1, 2, 5, 10 and higher nM doses, 48 hrs
Experimental: FIG. 11 illustrates an embodiment of the present invention and illustrates SIM-1 and SIM-2 induced apoptosis in MDA-MB-468 TNBC cells, but not HMEC control cells. MDA-MB-468 cells were treated with increasing doses of (A) SIM-1 and (B) SIM-2 for 48 hrs followed by lactate dehydrogenase (LDH) release assay in the supernatants. The result was offset with cell-bound LDH and presented as a percent of DMSO control as discussed under method section. Half-maximal cytotoxicity or CT50 analyses were performed plotting maximum response as an index of increasing doses of (C) SIM-1 and (D) SIM-2. AnnexinV (green) and propidium iodide (red) dual-labeling were performed to evaluate apoptotic response in MDA-MB-468 cells once treated with increasing doses of (E) SIM-1 and (F) SIM-2 for 24 hrs. Nuclei were stained with DAPI. TUNEL assay was performed in MDA-MB-468 cells after treatment with 25 nM of (G) SIM-1. Brown-colored TUNEL bodies were visualized at cresyl violet-stained blue nuclei. (H) The number of TUNEL bodies were counted as a percent of 100 cresyl violet-stained blue cells. Ten independent images were counted for the quantification study. Similarly, SIM-2 was assessed for (I) TUNEL and (J) subsequent quantification analyses. […]
LDH Assay. […] Each dose was measured in triplicates. […] The plate was read at 490 nm (background at 680 nm). […]

Row | SMILES | H&E staining: size and color intensities of tumor cells [1] | apoptosis in TNBC tumor (TUNEL staining) [1] | Ki-67 immunoreactivity in tumor parenchyma [1] | cell death in HMEC cells (LDH) compared to DMSO control [2]
1 | O=C(O)CCC(=O)NCc1csc2ccc(Cl)cc12 [SIM-1, 4-[(5-chloro-1-benzothiophen-3-yl)methylamino]-4-oxobutanoic acid] | strongly reduced the size and color intensities of cells | weakly induced apoptosis | strong reduction | unable to augment any significant cell death
2 | CCOC(=O)c1c(NC(C)=O)sc2c(Cl)c(/C=N/O)ccc12 [SIM-2, ethyl 2-acetamido-7-chloro-6-(hydroxyiminomethyl)-1-benzothiophene-3-carboxylate] | strongly reduced the size and color intensities of cells | weakly induced apoptosis | strong reduction | unable to augment any significant cell death

From US20250255847A1, “[…]s: Novel Drugs for Triple Negative Breast Cancer” (SIMMARON RSEARCH INC, priority 2024, published 2025)
